SMILES strings stand for the structures.

One assay has as its target T1, Dimer of Gag-Pol polyprotein [489-587] (Human immunodeficiency virus 1, UniProt P12497).
T1 construct: 489-587
Description: Protease Inhibition Assay.
Settings: not given
How it is done: For determination of IC50 values, HIV-1 protease was added to assay buffer containing inhibitor and the substrate (H-His-Lys-Ala-Arg-Val-Leu- (p-NO2) Phe-Glu-Ala-norleucine-Ser-NH2). The Leu- (p-NO2) Phe bond of the substrate was cleaved by the enzyme, and the substrate and products were separated by reversed-phase HPLC. Absorbance was measured at 220 nm, peak areas were determined, and percentage conversion to product was calculated.
One may read the IC50 as the concentration that inhibits the measured activity by half. Lower therefore signals higher potency. `O=C1CC2(CCc3ccccc32)OC(=O)C1SCc1ccccc1` (stereo unspecified) [5'-(benzylsulfanyl)-4'-hydroxy-3',6',2,3-tetrahydrospiro[indene-1,2'-pyran]-6'-one] gave an IC50 of 11800 nM.
The same measure, in the same setting: for `Cc1ccc(C(C)C)c(SC2C(=O)CC(c3ccccc3)(c3ccccc3)OC2=O)c1` (stereo unspecified) [4-hydroxy-3-{[5-methyl-2-(propan-2-yl)phenyl]sulfanyl}-6,6-diphenyl-5,6-dihydro-2H-pyran-2-one] the value was 38 nM.
Same read-out and setting: in the case of `O=C1CC(COc2ccccc2)(c2ccccc2)OC(=O)C1SCc1ccccc1` (stereo unspecified) [5,6-Dihydro-4-hydroxy-6-phenoxymethyl-6-phenyl-3-[(phenylmethyl)thio]-2H-pyran-2-one] it was 172 nM.
Take `CN(CC1(c2ccccc2)CC(=O)C(SCCc2ccccc2)C(=O)O1)c1ccccc1` (stereo unspecified) [5,6-Dihydro-4-hydroxy-6-[(methylphenylamino)methyl]-6-phenyl-3-[(2-phenylethyl)thio]-2H-pyran-2-one]: the midpoint of inhibition, the IC50, lay at 2280 nM.
As to `O=C1CC(c2ccccc2)(c2ccccc2)OC(=O)C1Sc1ccccc1C1CCCCC1` (stereo unspecified) [3-[(2-Cyclohexylphenyl)sulfanyl]-5,6-dihydro-4-hydroxy-6,6-diphenyl-2H-pyran-2-one], the IC50 stood at 127 nM.
On to `O=C1CC(CCCCO)(c2ccccc2)OC(=O)C1SCc1ccccc1` (stereo unspecified) [3-(benzylsulfanyl)-4-hydroxy-6-(4-hydroxybutyl)-6-phenyl-5,6-dihydro-2H-pyran-2-one], for which inhibition was half-maximal at 1260 nM (IC50).
Same read-out and setting: for `O=C1CC2(CCCc3ccccc32)OC(=O)C1SCc1ccccc1` (stereo unspecified) [3,4-Dihydro-4-hydroxy-5-[(phenylmethyl)thio]spiro[naphthalene-1(2H),2-[2H]pyran]-6 (3 H)-one] the value was 2300 nM.
`CC(C)c1ccc(C(C)(C)C)c(SC2C(=O)CC(CCc3ccccc3)(c3ccccc3)OC2=O)c1` (stereo unspecified) [3-[(2-tert-Butyl-5-isopropylphenyl)sulfanyl]-5,6-dihydro-4-hydroxy-6-phenyl-6-(2-phenylethyl)-2H-pyran-2-one]: inhibition was half-maximal at 47 nM (IC50).
Same read-out and setting: for `CC(C)(C)c1ccccc1SC1C(=O)CC(c2ccccc2)(c2ccccc2)OC1=O` (stereo unspecified) [3-[(2-tert-Butylphenyl)sulfanyl]-5,6-dihydro-4-hydroxy-6,6-diphenyl-2H-pyran-2-one] the value was 49 nM.
As for `CC(C)c1ccc(C(C)C)c(SC2C(=O)CC(c3ccccc3)(c3ccccc3)OC2=O)c1` (stereo unspecified) [3-{[2,5-bis(propan-2-yl)phenyl]sulfanyl}-4-hydroxy-6,6-diphenyl-5,6-dihydro-2H-pyran-2-one], it took 119 nM to reach half-maximal inhibition (IC50).
Same read-out and setting: for `O=C1CC(CCc2ccccc2)(c2ccccc2)OC(=O)C1Sc1ccccc1C1CCCCC1` (stereo unspecified) [3-[(2-cyclohexylphenyl)sulfanyl]-4-hydroxy-6-phenyl-6-(2-phenylethyl)-5,6-dihydro-2H-pyran-2-one] the value was 32 nM.
For the compound `CC(C)c1ccccc1SC1C(=O)CC(c2ccccc2)(c2ccccc2)OC1=O` (stereo unspecified) [4-hydroxy-6,6-diphenyl-3-{[2-(propan-2-yl)phenyl]sulfanyl}-5,6-dihydro-2H-pyran-2-one], the IC50 was 23 nM.
As to `CC(C)c1ccc(C(C)C)c(SC2C(=O)CC(CCc3ccccc3)(c3ccccc3)OC2=O)c1` (stereo unspecified) [5,6-Dihydro-4-hydroxy-6-phenyl-6-(2-phenylethyl)-3-[(2,5-diisopropylphenyl)sulfanyl]-2H-pyran-2-one], the IC50 came out at 14 nM.
Still for that read-out and setting: for `Cc1ccc(C(C)(C)C)c(SC2C(=O)CC(CCc3ccccc3)(c3ccccc3)OC2=O)c1` (stereo unspecified) [4-Hydroxy-5,6-dihydropyrone deriv. 49] the value was 10 nM.
Take `Cc1ccccc1SC1C(=O)CC(c2ccccc2)(c2ccccc2)OC1=O` (stereo unspecified) [4-hydroxy-3-[(2-methylphenyl)sulfanyl]-6,6-diphenyl-5,6-dihydro-2H-pyran-2-one]: it took 388 nM to reach half-maximal inhibition (IC50).
Still for that read-out and setting: for `Cc1ccc(C(C)C)c(SC2C(=O)C[C@](CCc3ccccc3)(c3ccccc3)OC2=O)c1` (stereo partly drawn) [(6R)-4-hydroxy-3-{[5-methyl-2-(propan-2-yl)phenyl]sulfanyl}-6-phenyl-6-(2-phenylethyl)-5,6-dihydro-2H-pyran-2-one] the value was 130 nM; for `CCCCCC1(CCCCC)CC(=O)C(SCc2ccccc2)C(=O)O1` (stereo unspecified) [3-(Benzylsulfanyl)-4-hydroxy-6,6-dipentyl-5,6-dihydro-pyran-2-one], 327 nM.

Staying with this assay, now noted: pH 4.7; 37 °C.
`O=C(O)CCC1(c2ccccc2)CC(=O)C(SCCc2ccccc2)C(=O)O1` (stereo unspecified) [3-(3,6-Dihydro-4-hydroxy-6-oxo-2-phenyl-5-[(2-phenylethyl)thio]-2H-pyran-2-yl)propanoic Acid] yielded an IC50 of 1200 nM.
`CC(C)CCCC1(c2ccccc2)CC(=O)C(SCc2ccccc2)C(=O)O1` (stereo unspecified) [3-(benzylsulfanyl)-4-hydroxy-6-(4-methylpentyl)-6-phenyl-5,6-dihydro-2H-pyran-2-one]: the IC50 came out at 183 nM.
Still for that read-out and setting: in the case of `CCCC1(c2ccccc2)CC(=O)C(SCc2ccccc2)C(=O)O1` (stereo unspecified) [5,6-Dihydro-4-hydroxy-6-phenyl-3-[(phenylmethyl)thio]-6-propyl-2H-pyran-2-one] it was 290 nM; in that of `CCCCCCC1(c2ccccc2)CC(=O)C(SCc2ccccc2)C(=O)O1` (stereo unspecified) [3-(benzylsulfanyl)-6-hexyl-4-hydroxy-6-phenyl-5,6-dihydro-2H-pyran-2-one], 180 nM; in that of `O=C1CC(c2ccccc2)OC(=O)C1SCc1ccccc1` (stereo unspecified) [5,6-Dihydro-4-hydroxy-6-phenyl-3-[(phenylmethyl)thio]-2H-pyran-2-one], 8900 nM.
Still for that read-out and setting: in the case of `CCCCC1(c2ccccc2)CC(=O)C(SCCc2ccccc2)C(=O)O1` (stereo unspecified) [6-Butyl-5,6-dihydro-4-hydroxy-6-phenyl-3-[(2-phenylethyl)thio]-2H-pyran-2-one] it was 400 nM; in that of `CC(C)CCCC1(c2ccccc2)CC(=O)C(SCCc2ccccc2)C(=O)O1` (stereo unspecified) [4-hydroxy-6-(4-methylpentyl)-6-phenyl-3-[(2-phenylethyl)sulfanyl]-5,6-dihydro-2H-pyran-2-one], 155 nM.
The compound `O=C1CC(c2ccccc2)(c2ccccc2)OC(=O)C1SCCc1ccccc1` (stereo unspecified) [5,6-Dihydro-4-hydroxy-6,6-diphenyl-3-[(2-phenylethyl)thio]-2H-pyran-2-one] returned an IC50 of 152 nM.
The same measure, in the same setting: for `O=C(O)CCCCC1(c2ccccc2)CC(=O)C(SCCc2ccccc2)C(=O)O1` (stereo unspecified) [5-{4-hydroxy-6-oxo-2-phenyl-5-[(2-phenylethyl)sulfanyl]-3,6-dihydro-2H-pyran-2-yl}pentanoic acid] the value was 5 nM.
Same read-out and setting: for `CC(C)CC1(c2ccccc2)CC(=O)C(SCCc2ccccc2)C(=O)O1` (stereo unspecified) [5,6-Dihydro-4-hydroxy-6-(2-methylpropyl)-6-phenyl-3-[(2-phenylethyl)thio]-2H-pyran-2-one] the value was 1200 nM.
Consider `CC(C)CCC1(c2ccccc2)CC(=O)C(SCCc2ccccc2)C(=O)O1` (stereo unspecified) [4-hydroxy-6-(3-methylbutyl)-6-phenyl-3-[(2-phenylethyl)sulfanyl]-5,6-dihydro-2H-pyran-2-one], for which the IC50 stood at 96 nM.
The same measure, in the same setting: for `NC(=O)CCCC1(c2ccccc2)CC(=O)C(SCCc2ccccc2)C(=O)O1` (stereo unspecified) [4-(3,6-Dihydro-4-hydroxy-6-oxo-2-phenyl-5-[(phenylethyl)thio]-2H-pyran-2-yl)butyramide] the value was 1300 nM.
The same measure, in the same setting: in the case of `O=C1CC(CCc2ccccc2)(c2ccccc2)OC(=O)C1Sc1ccccc1` (stereo unspecified) [5,6-Dihydro-4-hydroxy-6-phenyl-6-(2-phenylethyl)-3-(phenylthio)-2H-pyran-2-one] it was 130 nM.
Same read-out and setting: for `O=C1CC(c2ccccc2)(c2ccccc2)OC(=O)C1SCc1ccccc1` (stereo unspecified) [5,6-Dihydro-4-hydroxy-6,6-diphenyl-3-[(phenylmethyl)thio]-2H-pyran-2-one] the value was 262 nM; for `CC(C)CC1(c2ccccc2)CC(=O)C(SCc2ccccc2)C(=O)O1` (stereo unspecified) [3-(benzylsulfanyl)-4-hydroxy-6-(2-methylpropyl)-6-phenyl-5,6-dihydro-2H-pyran-2-one], 440 nM.
`O=C1CC(CCc2ccccc2)(c2ccccc2)OC(=O)C1SCc1ccccc1` (stereo unspecified) [3-(benzylsulfanyl)-4-hydroxy-6-phenyl-6-(2-phenylethyl)-5,6-dihydro-2H-pyran-2-one]: the IC50 amounted to 60 nM.
Still for that read-out and setting: in the case of `O=C(O)CCCC1(c2ccccc2)CC(=O)C(SCCc2ccccc2)C(=O)O1` (stereo unspecified) [4-{4-hydroxy-6-oxo-2-phenyl-5-[(2-phenylethyl)sulfanyl]-3,6-dihydro-2H-pyran-2-yl}butanoic acid] it was 270 nM; in that of `O=C1CC(CC2CCCC2)(c2ccccc2)OC(=O)C1SCc1ccccc1` (stereo unspecified) [6-(Cyclopentylmethyl)-5,6-dihydro-4-hydroxy-6-phenyl-3-[(phenylmethyl)thio]-2H-pyran-2-one], 88 nM; in that of `CCCC1(c2ccccc2)CC(=O)C(SCCc2ccccc2)C(=O)O1` (stereo unspecified) [5,6-Dihydro-4-hydroxy-6-phenyl-3-[(2-phenylethyl)thio]-6-propyl-2H-pyran-2-one], 5100 nM.
On the same count and under the same terms, for `O=C1CC(CC2CCCC2)(c2ccccc2)OC(=O)C1SCCc1ccccc1` (stereo unspecified) [6-(cyclopentylmethyl)-4-hydroxy-6-phenyl-3-[(2-phenylethyl)sulfanyl]-5,6-dihydro-2H-pyran-2-one] the value was 510 nM; for `CCCCCC1(c2ccccc2)CC(=O)C(SCc2ccccc2)C(=O)O1` (stereo unspecified) [3-(benzylsulfanyl)-4-hydroxy-6-pentyl-6-phenyl-5,6-dihydro-2H-pyran-2-one], 124 nM; for `O=C1CC(c2ccccc2)OC(=O)C1SCCc1ccccc1` (stereo unspecified) [5,6-Dihydro-4-hydroxy-6-phenyl-3-[(2-phenylethyl)thio]-2H-pyran-2-one], 2100 nM.
`O=C1CC(c2ccccc2)(c2ccccc2)OC(=O)C1Sc1ccccc1` (stereo unspecified) [5,6-Dihydro-4-hydroxy-6,6-diphenyl-3-(phenylthio)-2H-pyran-2-one]: the IC50 amounted to 110 nM.
On the same count and under the same terms, in the case of `CCCCCC1(c2ccccc2)CC(=O)C(SCCc2ccccc2)C(=O)O1` (stereo unspecified) [4-hydroxy-6-pentyl-6-phenyl-3-[(2-phenylethyl)sulfanyl]-5,6-dihydro-2H-pyran-2-one] it was 84 nM.
